Data as given in US20220096592A1, “PIC1 VARIANTS WITH IMPROVED SOLUBILITY AND METHODS OF USING THE SAME” (priority 2019, published 2022).
Where a SMILES comes first, the peptide text is derived from it. [ ]: non-standard residue; d: D form. Sar = CNCC(=O)O

Tests used:
MPO heme ring = molecular target: T1, MPO heme ring (Homo sapiens, UniProt P05164); assay: MPO heme ring oxidative degradation (absorbance 300-550 nm); type: biochemical; details: peptides at 3 mM, with H2O2, FIG. 3A-3H
T1 construct: purchased Lee BioSolutions (Maryland Heights, Mo.)
Protocol: In a 96 well plate, 0.025 ml of 1.7 mg/ml MPO was combined with 0.00125 ml of 0.5% H2O2 and 3 mM PIC1 or sarcosine variant peptides in a total volume of 0.125 ml PBS and left to incubate at room temperature for 2 minutes. Using a 96 well plate reader, the wells were scanned for absorbance from 300-550 nm to generate curves reflecting the iron state in the MPO heme ring, as previously reported.
The ability of the variants to prevent degradation of the heme ring in the MPO molecule was then evaluated. […] Degradation of the heme ring can be evaluated via spectrometric measurements of absorption of wavelengths from 300 to 550 nm.

[1] = system: antibody-initiated complement activation (ABO incompatible hemolysis); details: for inhibition of ABO incompatible hemolysis, in words: peptides at 1.8 mM, compared with PA-dPEG24, FIG. 1A
Protocol: For hemolytic complement assays, human red blood cells (RBCs) from type AB donors were purified, washed and standardized to 1×10^9 cells/ml, as previously described. Human sera from type 0 donors at a 20% final concentration was combined with […] PIC1 or sarcosine variant peptides, and the volume was brought up to 0.15 ml with GVBS^++ and […] RBCs. For factor B-depleted sera hemolytic assays, a final of 0.005% factor B depleted sera was incubated with […] PIC1 or sarcosine variant peptides with 0.1 ml antibody-sensitized sheep red blood cells (EA) in a final volume of 0.75 ml GVBS^++. The samples were incubated for one hour at 37° C. Then, 1.0 ml of GVBS^−− was added to the factor B-depleted samples to stop the reaction. The samples were spun at 3,000 rpm for 5 minutes. The supernatant was then collected and read at 412 nm. An analysis was performed to represent the values as a percent of the positive control, which consists of human 0 sera and AB red blood cells in GVBS^++ buffer.
An evaluation of the extent to which the peptide variants inhibit antibody-initiated complement activation was performed. The peptide variants were tested in the following two hemolytic assays: (i) an ABO incompatibility ex vivo assay and (ii) a classical pathway CH50-type assay in factor B-depleted sera.
In the ABO incompatibility hemolytic assay, purified erythrocytes from a ‘type AB+’ donor were incubated with sera from a ‘type 0’ subject containing anti-A and anti-B antibodies; peptides were tested at 1.8 mM.

[2] = Total Antioxidant Capacity (TAC) assay; details: 0.03-0.25 mM, copper reducing equivalents, FIG. 4
Protocol: The TAC (Total Antioxidant Capacity) Assay (Cell Biolabs, Inc. San Diego, Calif.) was used to measure the antioxidant capacity of the sarcosine variants based on the reduction of copper (II) to copper (I). The assay was performed according to the recommended kit protocol.
Antioxidant activity was measured in copper reducing equivalents (CRE). Peptides were tested over a range of concentrations from 0.03-0.25 mM then compared to the standard.

[3] = system: purified human neutrophils; assay: NETosis assay (immune complex activated serum and H2O2; PicoGreen free DNA, fluorescence microscopy); type: cell-based; details: peptides at 2 mM, FIG. 5A
Protocol: NETosis assays with immune complexes were performed as previously described. Briefly, normal human serum was stimulated with ovalbumin-antiovalbumin immune complexes in GVBS^++ for 30 minutes at 37° C. This mixture along with 0.05% H2O2 was then added to purified human neutrophils resuspended in RPMI with or without sarcosine variants (2 mM), allowing NETosis to occur. Quantitation of free DNA released from the neutrophils was performed using PicoGreen. Slides were stained with DAPI (Southern Biotech, Birmingham, Ala.). The following antibodies were used to visualize formation of NETs: • (i) mouse anti-elastase (Invitrogen, Carlsbad, Calif.) as a primary antibody with the secondary goat anti-mouse antibody Alexa Fluor 568 (Novus Biologicals, Centennial, Colo.) and • (ii) rabbit anti-histone H3 (Abcam, Cambridge Mass.) with goat anti-rabbit antibody Alexa Fluor 488 (Novus Biologicals). Fluorescence microscopy using an Olympus BX53 microscope was performed to visualize NETs.
The peptide variants were tested for inhibition of NETosis. In this assay, purified human neutrophils were stimulated with normal human serum activated with ovalbumin-antiovalbumin immune complexes and hydrogen peroxide. Free DNA expressed from the neutrophils was then measured in a PicoGreen assay. […] Direct visualization of neutrophil extracellular trap (NET) formation by fluorescence microscopy was used to confirm the above NETosis results with the 18 variant. Human neutrophils were purified and stimulated on glass slides then stained with DAPI to visualize DNA and probed with anti-neutrophil elastase (αNE) and anti-histone H3 (αhistone), as previously described. […] Fluorescence microscopy visualization of NETs confirmed the findings seen for quantitative measurements of free DNA.

T1 sequence (P05164 279-745 limits assumed): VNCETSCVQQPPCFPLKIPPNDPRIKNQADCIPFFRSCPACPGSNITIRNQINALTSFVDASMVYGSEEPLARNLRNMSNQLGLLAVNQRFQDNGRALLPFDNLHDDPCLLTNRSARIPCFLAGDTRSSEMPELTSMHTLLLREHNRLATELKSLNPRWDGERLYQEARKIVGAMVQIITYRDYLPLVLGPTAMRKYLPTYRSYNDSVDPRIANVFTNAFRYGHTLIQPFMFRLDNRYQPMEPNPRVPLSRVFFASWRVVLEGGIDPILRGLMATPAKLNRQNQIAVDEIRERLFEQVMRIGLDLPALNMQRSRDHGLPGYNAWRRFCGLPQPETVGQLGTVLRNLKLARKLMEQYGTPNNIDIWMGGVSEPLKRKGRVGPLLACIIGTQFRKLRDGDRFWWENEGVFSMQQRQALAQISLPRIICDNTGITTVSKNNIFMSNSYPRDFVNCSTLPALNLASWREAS
T1 sequence (P05164 165-273 limits assumed): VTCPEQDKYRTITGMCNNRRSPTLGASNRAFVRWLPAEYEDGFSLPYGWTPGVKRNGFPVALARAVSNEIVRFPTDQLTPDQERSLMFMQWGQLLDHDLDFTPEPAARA

SMILES	inhibition of heme ring degradation, in words (MPO heme ring)	complement inhibition overall, in words ([1]; both hemolytic complement inhibition assays)	inhibition of ABO incompatible hemolysis, in words [1]	total antioxidant capacity, in words [2]	inhibition of NETosis (free DNA, PicoGreen), in words [3]
CC[C@H](C)[C@H](N)C(=O)N[C@@H](C)C(=O)N[C@@H](CC(C)C)C(=O)N[C@H](C(=O)N[C@@H](CC(C)C)C(=O)N[C@@H](CCC(=O)O)C(=O)N1CCC[C@H]1C(=O)N[C@H](C(=O)N(C)CC(=O)N[C@@H](CS)C(=O)N[C@@H](CCC(N)=O)C(=O)N[C@@H](CCC(=O)O)C(=O)N[C@@H](CCCNC(=N)N)C(=O)N[C@@H](C)C(=O)N[C@@H](C)C(=O)O)[C@@H](C)CC)[C@@H](C)CC [C9] (H-IALILEPI[Sar]CQERAA-OH)	near perfect preservation of the heme ring absorption spectrum	performed almost identically to the parent compound, PA-dPEG24	inhibited ABO incompatible hemolysis to a greater extent than did the PA-dPEG24	approximately half of the antioxidant capacity as PA-dPEG24	
CC[C@H](C)[C@H](N)C(=O)N[C@@H](C)C(=O)N(C)CC(=O)N[C@H](C(=O)N[C@@H](CC(C)C)C(=O)N[C@@H](CCC(=O)O)C(=O)N1CCC[C@H]1C(=O)N[C@H](C(=O)N[C@@H](CS)C(=O)N[C@@H](CS)C(=O)N[C@@H](CCC(N)=O)C(=O)N[C@@H](CCC(=O)O)C(=O)N[C@@H](CCCNC(=N)N)C(=O)N[C@@H](C)C(=O)N[C@@H](C)C(=O)O)[C@@H](C)CC)[C@@H](C)CC [L3] (H-IA[Sar]ILEPICCQERAA-OH)				antioxidant capacity approaching that of PA-dPEG24	
CC[C@H](C)[C@H](N)C(=O)N[C@@H](C)C(=O)N[C@@H](CC(C)C)C(=O)N(C)CC(=O)N[C@@H](CC(C)C)C(=O)N[C@@H](CCC(=O)O)C(=O)N1CCC[C@H]1C(=O)N[C@H](C(=O)N[C@@H](CS)C(=O)N[C@@H](CS)C(=O)N[C@@H](CCC(N)=O)C(=O)N[C@@H](CCC(=O)O)C(=O)N[C@@H](CCCNC(=N)N)C(=O)N[C@@H](C)C(=O)N[C@@H](C)C(=O)O)[C@@H](C)CC [I4] (H-IAL[Sar]LEPICCQERAA-OH)			inhibited ABO incompatible hemolysis to a greater extent than did the PA-dPEG24	antioxidant capacity approaching that of PA-dPEG24	reduced ability to inhibit NETosis compared with PA-dPEG24
CC[C@H](C)[C@H](N)C(=O)N(C)CC(=O)N[C@@H](CC(C)C)C(=O)N[C@H](C(=O)N[C@@H](CC(C)C)C(=O)N[C@@H](CCC(=O)O)C(=O)N1CCC[C@H]1C(=O)N[C@H](C(=O)N[C@@H](CS)C(=O)N[C@@H](CS)C(=O)N[C@@H](CCC(N)=O)C(=O)N[C@@H](CCC(=O)O)C(=O)N[C@@H](CCCNC(=N)N)C(=O)N[C@@H](C)C(=O)N[C@@H](C)C(=O)O)[C@@H](C)CC)[C@@H](C)CC [A2] (H-I[Sar]LILEPICCQERAA-OH)			inhibited ABO incompatible hemolysis to a greater extent than did the PA-dPEG24		
